# Results reported in US20040086901A1, “Database for analyzing gene function and method of analyzing gene function by dspa” (priority 2000, published 2004).
# Assays:
# Assay type in all cases: cell-based, mouse
# [1] = test system: NIH3T3 cells overexpressing CP-antisense; assay: MTT cell viability, CP-antisense cells vs parental line; settings: 3 to 4 days
# Summary of the method: (§1)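 Stable NIH3T3 transfectants (cDNA in pRc-CMV-type vector, G-418-selected, high expressers picked by Western blot) and parental cells were seeded at 1×10^5 cells/ml into twofold serial drug dilutions and grown 3–4 days. MTT formazan was read at 574/655 nm, and log ratios of IC40 values were derived.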
# [2] = test system: NIH3T3 cells overexpressing PDGF-R-Del; assay: MTT cell viability, PDGF-R-Del overexpressing cells vs parental line; settings: PDGF-R-Del high-expressing cells / parental cell line, 3 to 4 days
# Summary of the method: as §1
# [3] = test system: NIH3T3 cells overexpressing STAT1; assay: MTT cell viability, STAT1 overexpressing cells vs parental line; settings: STAT1 high-expressing cells / parental cell line, 3 to 4 days
# Summary of the method: (§2)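 Each full-length cDNA is expressed from a CMV vector in NIH3T3 cells, and a high-expressing clone is compared with the parental line. Viability is measured by MTT after 3–4 days with graded drug concentrations, and the log IC40 ratio is reported.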
# [4] = test system: NIH3T3 cells overexpressing HNF1; assay: MTT cell viability, HNF1 overexpressing cells vs parental line; settings: HNF1 high-expressing cells / parental cell line, 3 to 4 days
# Summary of the method: as §2
# [5] = test system: NIH3T3 cells overexpressing p38-DN; assay: MTT cell viability, p38-DN overexpressing cells vs parental line; settings: p38-DN high-expressing cells / parental cell line, 3 to 4 days
# Summary of the method: as §2
# [6] = test system: NIH3T3 cells, TPA (PKC downreg); assay: MTT cell viability, TPA (PKC downreg) cells vs parental line; settings: 3 to 4 days
# [7] = test system: NIH3T3 cells overexpressing JNK-DN; assay: MTT cell viability, JNK-DN overexpressing cells vs parental line; settings: JNK-DN high-expressing cells / parental cell line, 3 to 4 days
# Summary of the method: as §1
# [8] = test system: NIH3T3 cells overexpressing CBP8; assay: MTT cell viability, CBP8 overexpressing cells vs parental line; settings: CBP8 high-expressing cells / parental cell line, 3 to 4 days
# Summary of the method: as §1
# [9] = test system: NIH3T3 cells overexpressing DAN; assay: MTT cell viability, DAN overexpressing cells vs parental line; settings: DAN high-expressing cells / parental cell line, 3 to 4 days
# Summary of the method: as §1
# [10] = test system: NIH3T3 cells overexpressing p16/INK4A; assay: MTT cell viability, p16/INK4A overexpressing cells vs parental line; settings: p16/INK4A high-expressing cells / parental cell line, 3 to 4 days
# Summary of the method: as §1
# [11] = test system: NIH3T3 cells overexpressing m-calpain; assay: MTT cell viability, m-calpain overexpressing cells vs parental line; settings: m-calpain high-expressing cells / parental cell line, 3 to 4 days
# Summary of the method: as §2
# [12] = test system: NIH3T3 cells overexpressing N-ras; assay: MTT cell viability, N-ras overexpressing cells vs parental line; settings: N-ras high-expressing cells / parental cell line, 3 to 4 days
# Summary of the method: as §1
# [13] = test system: NIH3T3 cells overexpressing caspase-3; assay: MTT cell viability, caspase-3 overexpressing cells vs parental line; settings: caspase-3 high-expressing cells / parental cell line, 3 to 4 days
# Summary of the method: as §2
# [14] = test system: NIH3T3 cells overexpressing Ki-ras; assay: MTT cell viability, Ki-ras overexpressing cells vs parental line; settings: Ki-ras high-expressing cells / parental cell line, 3 to 4 days
# Summary of the method: as §1
# [15] = test system: NIH3T3 cells overexpressing HSP4O; assay: MTT cell viability, HSP4O overexpressing cells vs parental line; settings: HSP4O high-expressing cells / parental cell line, 3 to 4 days
# Summary of the method: as §1
# [16] = test system: NIH3T3 cells overexpressing Ha-ras; assay: MTT cell viability, drug sensitivity of Ha-ras overexpressing cells vs parental line; settings: Ha-ras high-expressing cells / parental cell line, 3 to 4 days
# Summary of the method: as §2
# [17] = test system: NIH3T3 cells overexpressing PKCalpha-KN; assay: MTT cell viability, PKCalpha-KN overexpressing cells vs parental line; settings: 3 to 4 days
# Summary of the method: as §2
# [18] = test system: NIH3T3 cells overexpressing calpastatin; assay: MTT cell viability, calpastatin overexpressing cells vs parental line; settings: calpastatin high-expressing cells / parental cell line, 3 to 4 days
# Summary of the method: as §1
# [19] = test system: NIH3T3 cells overexpressing HNF3b; assay: MTT cell viability, HNF3b overexpressing cells vs parental line; settings: HNF3b high-expressing cells / parental cell line, 3 to 4 days
# Summary of the method: as §2
# [20] = test system: NIH3T3 cells overexpressing cystatin E; assay: MTT cell viability, cystatin E overexpressing cells vs parental line; settings: cystatin E high-expressing cells / parental cell line, 3 to 4 days
# Summary of the method: as §1
# [21] = PKCalpha-KN (first of two lines) high-expressing cells / parental cell line
# [22] = PKCalpha-KN (second of two lines) high-expressing cells / parental cell line
SMILES,logarithmic value of ratio of IC40 values [1],logarithmic value of ratio of IC40 values [2],logarithmic value of ratio of IC40 values [3],logarithmic value of ratio of IC40 values [4],logarithmic value of ratio of IC40 values [5],logarithmic value of ratio of IC40 values [6],logarithmic value of ratio of IC40 values [7],logarithmic value of ratio of IC40 values [8],logarithmic value of ratio of IC40 values [9],logarithmic value of ratio of IC40 values [10],logarithmic value of ratio of IC40 values [11],logarithmic value of ratio of IC40 values [12],logarithmic value of ratio of IC40 values [13],logarithmic value of ratio of IC40 values [14],logarithmic value of ratio of IC40 values [15],logarithmic value of ratio of IC40 values [16],"logarithmic value of ratio of IC40 values [17, 22]",logarithmic value of ratio of IC40 values [18],logarithmic value of ratio of IC40 values [19],logarithmic value of ratio of IC40 values [20],also measured
"C[C@@H]1C[C@@H]([C@H](O)CC2CC(=O)NC(=O)C2)C(=O)[C@@H](C)C1 [CHX, cycloheximide]",0.00,0.39,0.00,0.38,0.04,0.00,0.00,0.00,0.72,0.04,0.22,−0.42,0.10,−0.43,0.00,−0.19,0.29,0.31,0.07,0.00,"logarithmic value of ratio of IC40 values [17, 21]: 0.30"
"O=CN/C=C/c1cc(O)ccc1O [Erbstatin, erbstatin]",0.06,0.00,0.04,0.391,0.06,0.00,0.11,0.14,0.20,0.51,0.00,−0.22,−0.10,0.04,0.00,0.08,0.00,−0.2,−0.03,−0.06,–
"C/C=C(/C)C(=O)O[C@H]1C(C)=C2[C@H]([C@@H]1OC(=O)CCCCCCC)[C@@](C)(OC(C)=O)C[C@H](OC(=O)CCC)[C@@]1(O)[C@H]2OC(=O)[C@@]1(C)O [Thapsigargin, thapsigargin]",−0.30,0.24,0.30,0.16,0.02,−0.23,0.24,0.12,0.18,−0.64,0.05,0.08,−0.17,−0.05,0.18,0.00,0.12,0.046,0.24,0.00,"logarithmic value of ratio of IC40 values [17, 21]: 0.10"
"COC[C@H]1OC(=O)c2coc3c2[C@@]1(C)C1=C(C3=O)[C@@H]2CCC(=O)[C@@]2(C)C[C@H]1OC(C)=O [Wortmannin, wortmannin]",−0.12,0.07,0.00,0.16,−0.18,0.00,−0.09,0.14,0.52,0.30,0.18,0.14,0.45,0.34,−0.07,0.34,−0.06,−0.14,0.24,0.00,"logarithmic value of ratio of IC40 values [17, 21]: 0.41"
"C=C[C@]1(C)CC[C@@H](C(=C)C)C[C@H]1C(=C)C [b-elemene, β-elemene]",0.00,0.16,0.05,0.02,0.05,0.00,−0.04,0.06,0.04,0.12,0.00,0.07,0.28,−0.10,0.02,−0.26,−0.07,0.18,−0.07,0.07,"logarithmic value of ratio of IC40 values [17, 21]: 0.07"
"CCCC[C@@H](C)/C=C(C)/C=C(\C)C(=O)NC1=C[C@@](O)(/C=C/C=C/C=C/C(=O)NC2=C(O)CCC2=O)[C@@H]2O[C@@H]2C1=O [Manumycin, manumycin]",0.00,0.09,0.00,0.06,0.00,0.03,−0.05,0.09,0.00,0.08,0.05,−0.09,0.04,−0.24,−0.06,−0.30,0.16,0.02,−0.06,0.00,"logarithmic value of ratio of IC40 values [17, 21]: 0.00"
COc1ccc2c(c1)CC[C@@H]1[C@@H]2CC[C@]2(C)[C@@H](NCCCCCCN3C(=O)C=CC3=O)CC[C@@H]12 [U73122],−0.10,0.00,0.18,0.07,0.00,−0.12,−0.07,0.18,0.36,0.28,−0.14,−0.54,0.53,−0.60,−0.20,−0.19,−0.97,−0.313,−0.31,−0.07,"logarithmic value of ratio of IC40 values [17, 21]: −0.33"
